Experimental data taken from a melting point compilation (Tetko et al.; mined from patent text by program, amines drawn as free bases though some values may be those of a salt).

For `CC(C)N(C)c1nc(Nc2cccc(NS(C)(=O)=O)c2)nc2[nH]cnc12`, the melting point was 144 to 147 °C.
For `CC(C)(O)c1nc(-c2ccc(-c3cnc4[nH]c(=O)n(CC5CCOCC5)c4n3)cc2)n[nH]1`, the melting point was 249 to 253 °C.
Work on `Cc1cc2c(c3c1NC(=O)CC3)OC(CN(C)C(=O)CCCO)C2` (configuration not stated) yielded a melting point of 141 to 143 °C.
With `CCOC(=O)CNc1ccc2oc3c(OC)ccc(C(=O)Nc4c(Cl)cncc4Cl)c3c2c1` the melting point was > 270 °C.
Molecule `C=Cc1cc(C=Cc2cc(C(C)(C)C)cc(C(C)(C)C)c2)cc(C=Cc2cc(C(C)(C)C)cc(C(C)(C)C)c2)c1` has a melting point of 143 to 145 °C.
Molecule `C=CCN1Cc2cc(Br)ccc2C1=O` has a melting point of 58 to 60 °C.
In the case of `NS(=O)(=O)c1cc(C(=O)O)cc(SCc2ccccc2)c1Oc1ccccc1`, the melting point is reported as 235 to 236 °C.
In the case of `O=C(NC1CCc2cc3c(cc2C1)OCC3)C(F)(F)F` (configuration not stated), the melting point is reported as 131 °C.
`COc1cc(C2C3=C(COC3=O)Nc3ccc4cc(C)[nH]c4c32)cc(OC)c1OC` (configuration not stated) gave a melting point of 280 to 281 °C.
`COC(=O)CCS(=O)(=O)c1ccc(NC(C)=O)cc1` gave a melting point of 156 to 158 °C.
`CC12CCC(C1)C1(C)Oc3ccc(C(=O)c4ccc(C(=O)O)cc4)cc3C21C` (configuration not stated) gave a melting point of 262 to 264 °C.
For `CN1CCN(C(=O)Cn2nnnc2S)CC1`, the melting point was > 250 °C.
In the case of `CC(=O)OC1CSC(Oc2ccc(-c3cccnc3F)nc2Cl)C(OC(C)=O)C1OC(C)=O` (configuration not stated), the melting point is reported as 227 °C.
With `Cc1cc(N)n(C(=NO)c2cccc([N+](=O)[O-])c2)n1` the melting point was 224 to 226 °C.
In the case of `CC1(C)CCC(C)(C)c2cc(Br)c(O)cc21`, the melting point is reported as 90 to 94 °C.
For `COC(=O)CC(Oc1c(Br)cc(-c2c3ccccc3c(Br)c3sc4ccccc4c23)cc1Br)C(=O)OC` (configuration not stated), the melting point was 118 to 121 °C.
Molecule `Cc1c(C)n(CC=CC(F)(F)F)c2c(OCc3ccccc3)nncc12` has a melting point of 138 to 140 °C.
Work on `Cc1cc(C)n(C(=O)CNS(=O)(=O)c2ccc(Cl)cc2)n1` yielded a melting point of 135 to 136 °C.
Molecule `CC(=O)N(C)c1ccc(C(=O)N2CCN(CCc3ccc(Br)cc3)CC2)cc1` has a melting point of 161 to 162 °C.
`O=c1cc(-c2ccncc2)nc2n1CCC(C(F)(F)F)N2` (configuration not stated) gave a melting point of 302 to 304 °C.
Molecule `NC(=O)c1ccc(C(F)(F)F)c(Br)c1` has a melting point of 148 to 150 °C.
In the case of `CCOC(=O)c1ccc(NC(=O)CCc2ccc(OC)cc2)cc1`, the melting point is reported as 134 to 136 °C.
For `CN(Cc1cccc2ccccc12)c1ncnc2c(N3CCOCC3)nc(N3CCC(N(C)C)CC3)nc12`, the melting point was 146 to 148 °C.
`Nc1ccccc1C(=O)NCCc1cccnc1` showed a melting point of 126 to 128 °C.
In the case of `Cc1cc(N2CCN(c3ccccc3)CC2)c2c(N)c(C(N)=O)sc2n1`, the melting point is reported as 247 to 250 °C.
Molecule `CC(=O)Nc1ccc2c(c1)C(=O)N(CCO[N+](=O)[O-])CO2` has a melting point of 141 to 142 °C.
With `Cc1[nH]cc2c(=O)n(-c3ccc(Cl)cc3)nc-2c1-c1cccc(NCc2cccnc2)c1` the melting point was 284 to 287 °C.
Work on `C=Cn1cc(C(=O)O)c(=O)c2cc(Cl)c(N3CCNCC3)nc21` yielded a melting point of 272 to 274 °C.
In the case of `CCOC(=O)C1CC1c1cc(=O)c2ccc3ccccc3c2o1` (configuration not stated), the melting point is reported as 106 °C.
Work on `COc1cc(OCc2cccnc2)ccc1/C=C/c1cc(/C=C/c2cc3ccccc3[nH]2)n[nH]1` yielded a melting point of 126 to 138 °C.
`CCSc1nsc(NC(=O)N(C)C)c1C(N)=O` gave a melting point of 147 °C.
Molecule `CC(C)=CCCC(C)=CCOc1ccc(C(=O)Nc2cccnc2)cc1` has a melting point of 102 to 103 °C.
Molecule `Cc1nc(NCC2CC2)c2nnn(-c3ccc(C(C)C)cc3Br)c2n1` has a melting point of 166 to 167 °C.
In the case of `CN(C)c1cc(CC(C#N)CNc2ccccc2)cc(N(C)C)c1N(C)C` (configuration not stated), the melting point is reported as 179 to 181 °C.
With `Cc1c(NC(=O)C(CSC(=O)OCC(C)C)Cc2ccccc2)cccc1C(=O)O` (configuration not stated) the melting point was 165 to 167 °C.
Work on `CC(C)(C)c1nnc(S)n(N)c1=O` yielded a melting point of 209 to 212 °C.
`CCC(CC)Nc1c([N+](=O)[O-])cc(C)c(C=CN(C)C)c1[N+](=O)[O-]` gave a melting point of 100 to 102 °C.
`CCN(CC)C(=O)Nc1ccc(-c2c[nH]c(=O)cn2)cc1` gave a melting point of 154 to 155 °C.
`N[C@@H](C/C(=C\C1CC1)C(=O)O)C(=O)O` gave a melting point of 204 °C.
Work on `Cc1c(NC(=O)OCc2ccccc2)cccc1C(C[N+](=O)[O-])c1c[nH]c2cc(N3CCOCC3)ccc12` (configuration not stated) yielded a melting point of 137 °C.
`COc1ccc2nc(Cl)cc(C)c2c1` showed a melting point of 144 to 145 °C.
For `O=C1COC2(CCN(CCCC(=O)c3ccc(F)cc3)CC2)CN1`, the melting point was 117 to 118 °C.
`O=C(O)c1ccc(Sc2ccccc2)cc1` showed a melting point of 101 to 103 °C.
In the case of `CCCc1c(OCc2ccccc2)ccc2c(=O)cc(CO)[nH]c12`, the melting point is reported as 197 to 199 °C.
For `OC1CCc2c(I)cccc21` (configuration not stated), the melting point was 83 to 84 °C.
With `COc1cc(OC)c2cc(C(=O)c3ccccc3)c(=O)oc2c1` the melting point was 178 to 179 °C.
In the case of `CC1(N2Cc3cc(CNC(=O)c4ccc(Cl)c(Cl)c4)ccc3C2=O)CCC(=O)NC1=O` (configuration not stated), the melting point is reported as 220 to 222 °C.
In the case of `COC(=O)C1=C(N)CC2CC[C@H]1N2C`, the melting point is reported as 95 to 98 °C.
Molecule `NS(=O)(=O)c1ccc(-c2cccc(-c3nc(-c4ccc(C(F)(F)F)nc4)cc(C(F)F)n3)c2)s1` has a melting point of 246 °C.
Molecule `Fc1ccc2nc(-c3ccccc3)cc(OCC3CO3)c2c1` (racemic) has a melting point of 118 to 120 °C.
`COc1cc(/C=C/C(=O)CC(=O)c2ccc(I)cc2)ccc1O` gave a melting point of 139 to 141 °C.
`CC12CCC3c4ccc(N)cc4CCC3C1CCC2O` (configuration not stated) showed a melting point of 75 to 77 °C.
`CCOC(=O)N1CCNC1=Nc1ccc(Cl)cc1Cl` showed a melting point of 138 to 139 °C.
Work on `CCOC(=O)CC1c2ccccc2C(=O)N1c1ccccc1` (configuration not stated) yielded a melting point of 109 to 110 °C.
Molecule `Cc1cc(C(=O)Nc2cccc(C3CN4CCSC4=N3)c2)n(C)n1` (configuration not stated) has a melting point of 163 to 164 °C.
For `C#CCOC(=O)c1ncn2c1[C@@H]1CCCN1C(=O)c1c(Cl)cccc1-2`, the melting point was 213 to 214 °C.
`C=CCSc1cc(C(=O)O)cc(S(N)(=O)=O)c1Oc1ccccc1` gave a melting point of 218 to 219 °C.
With `CC(C)(C)NC(=O)[C@@H]1CCCN1C(=O)[C@@H](O)[C@H](Cc1ccccc1)N(Cc1ccccc1)Cc1ccccc1` the melting point was 122 to 123 °C.
For `COc1ccccc1NC(=O)NC1N=C(c2ccc(Cl)cc2)c2c(sc(C)c2C)-n2c(C)nnc21` (configuration not stated), the melting point was 261 to 262 °C.
For `Cn1c(=O)c(-c2c(Cl)cccc2Cl)cc2cnc(S(C)(=O)=O)nc21`, the melting point was > 290 °C.
In the case of `O=[N+]([O-])CS(=O)(=O)c1c[nH]c2ccccc12`, the melting point is reported as 181 to 182 °C.
For `Nc1nc(N)c(CCCNc2ccc(C(=O)N[C@@H](CCC(=O)O)C(=O)O)cc2F)c(=O)[nH]1`, the melting point was > 175 °C.
`CC(C)n1nc(-c2sc(NCc3ccccc3)nc2-c2ccccc2)ccc1=O` showed a melting point of 157 to 158 °C.
With `Nc1cccc2c1C(=O)N1CCC[C@H]1c1c(C(=O)OC3CCCCC3)ncn1-2` the melting point was 211 to 212 °C.
For `CCOc1cccc(N(C(=O)CCC(=O)O)c2cc(C(C)(C)C)c(O)c(C(C)(C)C)c2)c1`, the melting point was 128 to 130 °C.
In the case of `CC(=O)OC1CC2CCC3C(CCC4(C)C(O)C(N5CCCCC5)CC34)C2(C)CC1N1CCOCC1` (configuration not stated), the melting point is reported as 148 to 152 °C.
Molecule `COc1ccc(-c2c(OCCN3CCOCC3)c3ccccc3oc2=O)cc1` has a melting point of 104 °C.
In the case of `O=C(O)c1ccc2nc3c(c(=O)n2c1)CCCC3=Cc1ccccc1`, the melting point is reported as 261 to 263 °C.
`CC(C)C(=O)NCc1ccc(NC(=O)/C=C/c2cnn(C)c2-c2ccc(F)cc2)cc1` gave a melting point of 258 to 259 °C.
Work on `CCCNc1cn(-c2cccnc2)nc1Cl` yielded a melting point of 92 to 94 °C.
For `CCOc1ccc(-c2noc3c(Cl)c(OC)ccc23)c(F)c1`, the melting point was 151 to 152 °C.
In the case of `Oc1ncc(-c2ccc(C(F)(F)F)cc2)cn1`, the melting point is reported as 271 to 273 °C.
